The values that follow come from patent publication US11685738B2, “Fluorinated tetrahydronaphthyridinyl nonanoic acid derivatives and uses thereof” (OcuTerra Therapeutics, Inc., priority 2015, dated 2023).

The term IC50 denotes the point on the concentration scale where inhibition reaches its midpoint. Low values mean higher potency, high ones lower potency.

Each structure is given as a SMILES string.

The target in one assay is αvβ3 (Homo sapiens (Human), UniProt P05106+P06756). The assay can be described thus: αVβ3–vitronectin integrin binding assay (integrin-coupled beads, flow cytometry). Conditions: ligand vitronectin. The text has this:
(§1) All αV Integrins are known to bind to proteins with a RGD motif. Two RGD ligands were used in this study: Vitronectin (VN) as a ligand for αVβ3 and αVβ5 (Wayner et al., J. Cell Biol., 113 (4), 919-929, 1991), and LAP TGF-β1 (LAP1) as a ligand for αVβ6 and αVβ8 (Rognoni et al., Nat. Med., 20(4): 350-359, 2014). CWHM12 was used as a positive control for αVβ6 and αVβ8 (Henderson et al., Nat. Med. 19(12), 10.1038/nm.3282 2013), and Cilengitide as a positive control for αVβ3 and αVβ5 (Kumar et al., J. Pharmacol. Exp. Ther., 283, 843-853, 1997).
(§2) The integrin coupled Dyna beads were allowed to interact with respective ligands. The integrin-ligand complex was detected with either Primary/Secondary Antibody conjugated with Fluorescein Isothiocyanate (FITC). For αVβ3 and αVβ5, Vitronectin was used as a ligand and a primary antibody conjugated with FITC (Anti-VN-FITC Ab) was used to detect the interaction. For αVβ6 and αVβ8, LAP-TGF (31 was used as ligand and a primary antibody against LAP1 (Anti-LAP1 Ab) and a secondary antibody conjugated with FITC were used to detect the αVβ6/αVβ8-LAP-TGF (31 complex. Fluorescence was measured by Flow Cytometry analysis.
(§3) 5 mg of Dyna beads were weighed in a low protein binding microfuge (Eppendorf) tube (1.5 mL volume). The beads were re-suspended in 1 mL of Sodium Phosphate Buffer and vortexed at high speed for 30 seconds. The tube was then placed in a tube roller and tilt rotated for 10 min. After tilt rotation, the tube was placed on the Magna Spin and the beads were allowed to settle. The supernatant was discarded and the beads were washed three times. The beads were then re-suspended in 100 μL of Sodium Phosphate Buffer and 20 μL of washed beads were distributed into 5 low protein binding Eppendorf tubes (1 mg of beads in each tube). The beads were used for coupling integrins.
(§4) 20 μL of (1 mg) of beads were mixed with 20 μL of integrins (20 μg) and 20 μL of 3 M Ammonium Sulfate solution (final concentration of ammonium sulfate was 1M) to achieve a Bead: Protein ratio of 5 mg:100 μg. The solution was mixed gently and placed in a tube roller and incubated at 37° C. for 16 hours.
αVβ3/αVβ5 coupled beads were treated with the ligand at room temperature for 3 hours. The complex (Integrin+Ligand) was then treated with Anti-Vitronectin Ab conjugated with FITC overnight at 4° C. The complex was analyzed by either plate reader or Flow Cytometer.
10 μL of αVβ3/αVβ5 coupled beads were taken for the experiment. The concentration of integrins was 10 nM. 10 μL of vitronectin was taken. The concentration was 10 nM. Reaction between integrin coupled beads and vitronectin was considered as the full reaction, and reaction without vitronectin or a compound of the disclosure was considered as the blank reaction. The samples were incubated in low protein binding tubes at room temperature for 3 hours. The tubes were briefly spun and placed in a Magna spin. The supernatant was then removed. The beads were washed with assay buffer twice to remove excess vitronectin and then re-suspended in 150 μL of assay buffer containing 1:500 Anti-vitronectin Ab conjugated with FITC. The tubes were placed in a tube roller and incubated at 4° C. overnight. […] The beads were then re-suspended in […] PBS and analyzed by a Flow Cytometer (BD FACSCalibur, Software—BD Cell Quest Pro Version 6).
The samples were acquired using a BD FACSCalibur system and analyzed with BD Cell quest pro Version 6. […] Percentage of binding was calculated with respect to full reaction. […]

A further assay addresses αvβ8 (Homo sapiens (Human), UniProt P06756+P26012). The assay can be described thus: αVβ8–LAP-TGF β1 integrin binding assay (integrin-coupled beads, flow cytometry). The following applies: ligand LAP TGF-β1.
From the text: as §1, §2, §3, §4
(§5) αVβ6/αVβ8 coupled beads were treated with the ligand LAP TGF-β1 (LAP1) at room temperature for 3 hours. The complex (Integrin+Ligand) was then treated with primary Ab (Anti-LAP1 Ab) overnight at 4° C. The whole complex (Integrin+Ligand+Primary Ab) was treated with Secondary Ab conjugated with FITC and incubated for 2 hours. The complex was analyzed by either plate reader or Flow Cytometer.
(§6) 10 μL of αVβ6/αVβ8 coupled beads were taken for the experiment. The concentration of integrins was 10 nM. 10 μL of LAP1 was taken (10 nM for aVβ6 and 20 nM for aVβ8). Reaction between integrin coupled beads and LAP1 was considered as the full reaction, and reaction without LAP1 or a compound of the disclosure was considered as the blank reaction. The samples were incubated in low protein binding tubes at room temperature for 3 hours. The tubes were briefly spun and placed in a Magna spin. The supernatant was removed. The beads were washed with assay buffer twice to remove excess LAP1 and then re-suspended in […] assay buffer containing 1:200 anti-LAP1 Ab (primary Ab). The tubes were placed in a tube roller and incubated at 4° C. overnight. After a brief spin, the tubes were then placed in a Magna spin and the supernatant was removed. The beads were washed with assay buffer twice to remove excess primary Ab and then re-suspended in 150 μL of assay buffer containing 1:500 secondary Ab conjugated with FITC. The tubes were incubated at room temperature for 2 hours in a tube roller. After a brief spin, the tubes were placed in a Magna spin and the supernatant was removed. The beads were washed with assay buffer twice followed by PBS. The beads were then re-suspended in 300 μL of PBS and analyzed by a Flow Cytometer (BD FACSCalibur, Software—BDcell Quest Pro Version 6). […]

A further assay deals with αvβ6 (Homo sapiens (Human), UniProt P06756+P18564). The assay can be described thus: αVβ6–LAP-TGF β1 integrin binding assay (integrin-coupled beads, flow cytometry). The following applies: for IC50: ligand LAP TGF-β1; for αvβ8/αvβ6: ratio of αvβ8 IC50 to αvβ6 IC50.
From the text: as §1, §2, §3, §4, §5, §6

Sequence of αvβ8 (P06756 31-992): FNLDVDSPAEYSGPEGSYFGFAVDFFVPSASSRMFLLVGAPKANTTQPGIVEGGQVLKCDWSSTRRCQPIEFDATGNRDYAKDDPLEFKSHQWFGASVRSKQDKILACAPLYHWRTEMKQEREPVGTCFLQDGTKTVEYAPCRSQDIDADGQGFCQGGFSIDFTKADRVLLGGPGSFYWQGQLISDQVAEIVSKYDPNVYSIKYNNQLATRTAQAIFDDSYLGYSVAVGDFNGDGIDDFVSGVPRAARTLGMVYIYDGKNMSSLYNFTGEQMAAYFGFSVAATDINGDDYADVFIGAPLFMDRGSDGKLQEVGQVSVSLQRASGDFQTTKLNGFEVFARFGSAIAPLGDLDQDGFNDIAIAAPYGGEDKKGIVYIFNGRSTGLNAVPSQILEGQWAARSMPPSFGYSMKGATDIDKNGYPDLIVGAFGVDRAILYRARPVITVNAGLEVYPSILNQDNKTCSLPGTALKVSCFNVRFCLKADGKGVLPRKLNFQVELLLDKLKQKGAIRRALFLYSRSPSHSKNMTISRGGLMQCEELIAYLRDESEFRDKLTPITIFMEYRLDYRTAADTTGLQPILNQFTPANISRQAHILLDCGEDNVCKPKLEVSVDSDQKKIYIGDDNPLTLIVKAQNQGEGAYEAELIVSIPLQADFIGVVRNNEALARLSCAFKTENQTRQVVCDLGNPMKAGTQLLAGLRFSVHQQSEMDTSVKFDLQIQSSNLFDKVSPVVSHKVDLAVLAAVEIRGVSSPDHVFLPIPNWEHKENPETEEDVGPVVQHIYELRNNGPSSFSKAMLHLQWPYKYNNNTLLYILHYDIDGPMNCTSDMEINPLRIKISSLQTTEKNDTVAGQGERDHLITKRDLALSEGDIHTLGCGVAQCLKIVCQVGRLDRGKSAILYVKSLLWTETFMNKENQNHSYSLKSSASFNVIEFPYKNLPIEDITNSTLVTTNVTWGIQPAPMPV
Sequence of αvβ8 (P26012 43-684): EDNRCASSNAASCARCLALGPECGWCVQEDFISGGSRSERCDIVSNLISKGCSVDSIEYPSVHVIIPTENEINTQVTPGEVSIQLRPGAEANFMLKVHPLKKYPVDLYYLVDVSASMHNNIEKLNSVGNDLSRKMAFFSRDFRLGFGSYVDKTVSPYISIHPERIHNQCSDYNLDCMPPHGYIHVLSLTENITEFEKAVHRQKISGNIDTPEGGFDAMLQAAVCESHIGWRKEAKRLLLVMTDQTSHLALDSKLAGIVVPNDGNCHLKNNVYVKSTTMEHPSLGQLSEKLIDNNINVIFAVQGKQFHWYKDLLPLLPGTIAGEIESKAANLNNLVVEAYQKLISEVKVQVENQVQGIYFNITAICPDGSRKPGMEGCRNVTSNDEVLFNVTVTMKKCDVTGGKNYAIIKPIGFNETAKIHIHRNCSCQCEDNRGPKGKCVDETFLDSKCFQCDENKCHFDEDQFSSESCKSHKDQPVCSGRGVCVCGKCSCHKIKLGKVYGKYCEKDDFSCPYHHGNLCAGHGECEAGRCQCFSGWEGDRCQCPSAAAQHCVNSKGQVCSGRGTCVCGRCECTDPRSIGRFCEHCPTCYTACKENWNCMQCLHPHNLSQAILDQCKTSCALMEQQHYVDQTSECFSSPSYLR
Sequence of αvβ6 (P06756 31-992): as the sequence (P06756 31-992) above
Sequence of αvβ6 (P18564 22-707): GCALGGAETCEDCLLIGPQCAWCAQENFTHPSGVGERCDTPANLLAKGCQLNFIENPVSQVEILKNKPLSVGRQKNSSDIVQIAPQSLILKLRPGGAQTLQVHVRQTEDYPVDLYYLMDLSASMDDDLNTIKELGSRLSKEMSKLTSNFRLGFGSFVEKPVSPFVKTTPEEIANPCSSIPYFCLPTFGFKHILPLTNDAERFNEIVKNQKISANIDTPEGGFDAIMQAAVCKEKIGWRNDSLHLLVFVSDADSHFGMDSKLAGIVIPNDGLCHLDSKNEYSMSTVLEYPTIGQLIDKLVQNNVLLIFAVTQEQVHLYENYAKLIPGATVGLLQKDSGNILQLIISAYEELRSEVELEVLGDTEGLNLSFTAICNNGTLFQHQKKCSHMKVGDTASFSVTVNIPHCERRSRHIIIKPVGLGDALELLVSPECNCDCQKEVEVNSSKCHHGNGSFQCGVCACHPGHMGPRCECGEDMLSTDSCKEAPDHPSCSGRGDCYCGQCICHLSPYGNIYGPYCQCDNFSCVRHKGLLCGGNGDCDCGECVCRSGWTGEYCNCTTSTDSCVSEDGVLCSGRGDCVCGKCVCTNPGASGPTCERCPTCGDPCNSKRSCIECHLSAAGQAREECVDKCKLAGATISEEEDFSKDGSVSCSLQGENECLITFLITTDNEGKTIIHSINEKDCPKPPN
Sequence of αvβ3 (P06756 31-992): as the sequence (P06756 31-992) above
Sequence of αvβ3 (P05106 27-718): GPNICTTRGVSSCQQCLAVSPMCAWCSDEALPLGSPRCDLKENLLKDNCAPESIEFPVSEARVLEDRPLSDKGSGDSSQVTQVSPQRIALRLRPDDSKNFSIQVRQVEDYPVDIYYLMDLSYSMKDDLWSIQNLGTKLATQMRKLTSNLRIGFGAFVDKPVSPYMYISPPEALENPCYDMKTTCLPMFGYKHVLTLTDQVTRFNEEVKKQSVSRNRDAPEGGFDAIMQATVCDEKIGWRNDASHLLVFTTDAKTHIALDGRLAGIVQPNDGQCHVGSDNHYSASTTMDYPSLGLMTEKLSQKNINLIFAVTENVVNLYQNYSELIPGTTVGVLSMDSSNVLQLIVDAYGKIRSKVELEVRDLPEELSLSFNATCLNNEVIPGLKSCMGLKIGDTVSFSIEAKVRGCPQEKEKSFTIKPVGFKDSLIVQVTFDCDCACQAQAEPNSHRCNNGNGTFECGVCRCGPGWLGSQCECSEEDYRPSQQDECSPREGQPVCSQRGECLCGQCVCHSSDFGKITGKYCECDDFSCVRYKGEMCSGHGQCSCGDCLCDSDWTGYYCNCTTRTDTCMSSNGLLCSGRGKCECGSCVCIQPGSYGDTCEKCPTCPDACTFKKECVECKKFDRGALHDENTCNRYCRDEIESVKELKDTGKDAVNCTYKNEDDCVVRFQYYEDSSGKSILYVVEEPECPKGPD

Regarding `O=C(O)CC(CCCCCCc1ccc2c(n1)NCCC2)c1cnc(C(F)(F)F)nc1` (centres unmarked) [Compound A2, 9-(5,6,7,8-tetrahydro-1,8-naphthyridin-2-yl)-3-(2-(trifluoromethyl)pyrimidin-5-yl)nonanoic acid], the IC50 on αvβ3 was found to be 9 nM; at αvβ8, 78.1 nM; on αvβ6, 11.6 nM. Further, on αvβ6, the αvβ8/αvβ6 is given as 6.71.
On the same counts, the results for `O=C(O)CC(CCCCCCc1ccc2c(n1)NCCC2)c1ccc(OC(F)F)nc1` (centres unmarked) [Compound A3, 3-(6-(difluoromethoxy)pyridin-3-yl)-9-(5,6,7,8-tetrahydro-1,8-naphthyridin-2-yl)nonanoic acid] are 0.57 nM, 79.3 nM, 18.2 nM and 4.37.
As for `O=C(O)CC(CCCCCCc1ccc2c(n1)NCCC2)c1cnc2ccc(F)cc2c1` (centres unmarked) [Compound A4, 3-(6-fluoroquinolin-3-yl)-9-(5,6,7,8-tetrahydro-1,8-naphthyridin-2-yl)nonanoic acid], the IC50 at αvβ3 is 1.4 nM; at αvβ8 it was 21.4 nM; at αvβ6 it was 5.69 nM. For the same compound, at αvβ6, the αvβ8/αvβ6 is 3.75.
`O=C(O)CC(CCCCCCc1ccc2c(n1)NCCC2)c1cnc2cc(F)ccc2c1` (centres unmarked) [Compound A5, 3-(7-fluoroquinolin-3-yl)-9-(5,6,7,8-tetrahydro-1,8-naphthyridin-2-yl)nonanoic acid]: the IC50 on αvβ3 came to 65.7 nM; at αvβ8, 63.9 nM; at αvβ6, 9.97 nM. In addition, the αvβ8/αvβ6 on αvβ6 is given as 6.41.
For `O=C(O)CC(CCCCCCc1ccc2c(n1)NCCC2)c1ccc(Cl)c(C(F)(F)F)c1` (centres unmarked) [Compound A23, 3-(4-chloro-3-(trifluoromethyl)phenyl)-9-(5,6,7,8-tetrahydro-1,8-naphthyridin-2-yl)nonanoic acid], in that order: 4.3 nM, 151 nM, 14.8 nM and 10.18.
